The text below walks through data of patent US11034650B2, “Compounds useful for treating a Mannheimia haemolytica or Histophilus somni infection” (Intervet Inc., priority 2016, dated 2021).

Common to all, as to assay type: cell-based
Assay [1] deals with Mannheimia haemolytica MH 10720 (154, BRD field isolate). Put plainly: MIC, broth-microdilution (CLSI VET01-A4), strain MH 10720. The settings on record: Mannheimia haemolytica strain MH 10720, broth-microdilution; unit assumed. On the procedure: (§1) For example, representative compounds were tested against ***, Mannheimia haemolytica and Pasteurella multocida, using the conventional broth-dilution assay.
(§2) The Minimum inhibitory concentrations (MIC) of compounds according to the invention for a number of veterinary bacterial pathogens were determined by the broth-microdilution method according to CLSI document VET01-A4.
(§3) Microdilution trays containing a doubling dilution series of the test compound were used for the tests. The MIC results were interpreted according to the CLSI documents VET01-S3. The lowest concentration of compound at which no visible growth (i.e. no turbidity) detected by the unaided eye was recorded as the MIC.
(Broth dilution looks for growth in wells or tubes with falling amounts of substance.)

Assay [2] deals with Mannheimia haemolytica MH 6374 (ATCC 33396, reference strain). Put plainly: MIC, broth-microdilution (CLSI VET01-A4), strain MH 6374. The settings on record: Mannheimia haemolytica strain MH 6374, broth-microdilution; unit assumed. As for the experimental part: as §1, §2, §3
Assay [3] deals with Pasteurella multocida PM 6267 (P 2225 (L386), reference strain, mouse infection strain). Put plainly: MIC, broth-microdilution (CLSI VET01-A4), strain PM 6267. The note with it: Pasteurella multocida strain PM 6267, broth-microdilution; unit assumed. As for the experimental part:
as §1, §2, §3

For assay [4], the system named is Mannheimia haemolytica MH 6357 (M7/2, reference strain, cattle infection strain). The experiment in a line: MIC, broth-microdilution (CLSI VET01-A4), strain MH 6357. The settings on record: Mannheimia haemolytica strain MH 6357, broth-microdilution; unit assumed. As for the experimental part:
as §1, §2, §3

For assay [5], the system named is Pasteurella multocida PM 12080 (IV102277-0093, BRD field isolate). The experiment in a line: MIC, broth-microdilution (CLSI VET01-A4), strain PM 12080. The settings on record: Pasteurella multocida strain PM 12080, broth-microdilution; unit assumed. On the procedure: as §1, §2, §3
Assay [6] has as its system Mannheimia haemolytica MH 12587 (1071, BRD field isolate, macrolide-resistance: erm+, E+). The experiment in a line: MIC, broth-microdilution (CLSI VET01-A4), strain MH 12587. The settings on record: Mannheimia haemolytica strain MH 12587, broth-microdilution; unit assumed. On the procedure: as §1, §2, §3
Assay [7] relates to Mannheimia haemolytica MH 13065 (XB0446-6003.9, BRD field isolate). Put plainly: MIC, broth-microdilution (CLSI VET01-A4), strain MH 13065. The settings on record: Mannheimia haemolytica strain MH 13065, broth-microdilution; unit assumed. As for the experimental part:
as §1, §2, §3

Assay [8] concerns Mannheimia haemolytica MH 13093 (XB0472-6014.1, BRD field isolate). Put plainly: MIC, broth-microdilution (CLSI VET01-A4), strain MH 13093. The note with it: Mannheimia haemolytica strain MH 13093, broth-microdilution; unit assumed. As for the experimental part:
as §1, §2, §3

Assay [9] deals with Pasteurella multocida PM 10775 (080130003051, BRD field isolate). The experiment in a line: MIC, broth-microdilution (CLSI VET01-A4), strain PM 10775. The settings on record: Pasteurella multocida strain PM 10775, broth-microdilution; unit assumed. On the procedure:
as §1, §2, §3

In brackets after ≈: the same amount, converted by molar mass.

Consider `CC(C)(C(NC(=O)c1ccc(C#Cc2ccc(CNC3CC3)cc2)cc1)C(=O)NO)[N+](=O)[O-]` (racemic) [Compound 218], for which the MIC MH 10720 in [1] was ≤ 0.1 µg/mL. The molecule also came in with an MIC MH 6374 in [2] of 0.4 µg/mL (≈ 0.888 µM). The molecule also returned an MIC PM 6267 in assay [3] of 0.4 µg/mL (≈ 0.888 µM). In addition, the MIC MH 6357 in [4] stood at 0.4 µg/mL (≈ 0.888 µM). Further, the MIC PM 12080 in [5] was ≤ 0.1 µg/mL. The same molecule came in with an MIC MH 12587 in [6] of 0.8 µg/mL (≈ 1.78 µM). In addition, the MIC MH 13065 in [7] was 0.4 µg/mL (≈ 0.888 µM). This molecule had an MIC MH 13093 in [8] of 0.4 µg/mL (≈ 0.888 µM).
`C=CCNCc1cccc(C#Cc2ccc(C(=O)N[C@H](C(=O)NO)C(C)C)cc2)c1` [Compound 26] had an MIC PM 10775 in assay [9] of 0.8 µg/mL (≈ 1.97 µM). Besides, the MIC MH 10720 in assay [1] was 3.1 µg/mL (≈ 7.64 µM). In assay [2], this molecule showed an MIC MH 6374 of 6.3 µg/mL (≈ 15.5 µM). Also, in assay [3], the MIC PM 6267 was 3.1 µg/mL (≈ 7.64 µM). The same molecule had an MIC MH 6357 in assay [4] of 12.5 µg/mL (≈ 30.8 µM). This molecule yielded an MIC PM 12080 in assay [5] of 6.3 µg/mL (≈ 15.5 µM). Also, in assay [6], the MIC MH 12587 came out at 25 µg/mL (≈ 61.7 µM). This molecule also had an MIC MH 13065 in assay [7] of 12.5 µg/mL (≈ 30.8 µM). Further, the MIC MH 13093 in assay [8] was determined as 12.5 µg/mL (≈ 30.8 µM).
In the case of `CC(C)[C@H](NC(=O)c1ccc(C#Cc2cccc(CNCC(C)(C)C)c2)cc1)C(=O)NO` [Compound 27], the MIC PM 10775 in [9] amounted to 0.8 µg/mL (≈ 1.84 µM). This molecule displayed an MIC MH 10720 in [1] of 3.1 µg/mL (≈ 7.12 µM). Besides, the MIC MH 6374 in assay [2] is 12.5 µg/mL (≈ 28.7 µM). Besides, the MIC PM 6267 in assay [3] was 3.1 µg/mL (≈ 7.12 µM). Besides, in [4], the MIC MH 6357 was found to be 12.5 µg/mL (≈ 28.7 µM). In addition, in assay [5], the MIC PM 12080 was 6.3 µg/mL (≈ 14.5 µM). The MIC MH 12587 in assay [6] came out at 25 µg/mL (≈ 57.4 µM). In addition, the MIC MH 13065 in [7] came out at 25 µg/mL (≈ 57.4 µM). In addition, the MIC MH 13093 in [8] is 25 µg/mL (≈ 57.4 µM).
The molecule `CC(C)[C@H](NC(=O)c1ccc(C#Cc2cccc(CN3CCOCC3)c2)cc1)C(=O)NO` [Compound 32] displayed an MIC PM 10775 in assay [9] of 0.4 µg/mL (≈ 0.918 µM). Also, the MIC MH 10720 in assay [1] is 3.1 µg/mL (≈ 7.12 µM). In addition, in assay [2], the MIC MH 6374 was found to be 6.3 µg/mL (≈ 14.5 µM). The same molecule came in with an MIC PM 6267 in [3] of 1.6 µg/mL (≈ 3.67 µM). The MIC MH 6357 in assay [4] stood at 6.3 µg/mL (≈ 14.5 µM). In [5], this molecule came in with an MIC PM 12080 of 3.1 µg/mL (≈ 7.12 µM). The molecule further yielded an MIC MH 12587 in [6] of 12.5 µg/mL (≈ 28.7 µM). In assay [7], this molecule gave an MIC MH 13065 of 6.3 µg/mL (≈ 14.5 µM). Further, the MIC MH 13093 in [8] turned out to be 6.3 µg/mL (≈ 14.5 µM).
As to `CC(C)[C@H](NC(=O)c1ccc(C#Cc2cccc(CNCc3ccccc3)c2)cc1)C(=O)NO` [Compound 40], in assay [9], the MIC PM 10775 was 0.8 µg/mL (≈ 1.76 µM). In addition, the MIC MH 10720 in assay [1] came out at 6.3 µg/mL (≈ 13.8 µM). Moreover, the MIC MH 6374 in [2] turned out to be 3.1 µg/mL (≈ 6.8 µM). The MIC PM 6267 in assay [3] is 3.1 µg/mL (≈ 6.8 µM). The molecule also returned an MIC MH 6357 in assay [4] of 6.3 µg/mL (≈ 13.8 µM). In assay [5], this molecule had an MIC PM 12080 of 6.3 µg/mL (≈ 13.8 µM). This molecule also had an MIC MH 12587 in assay [6] of 12.5 µg/mL (≈ 27.4 µM). This molecule had an MIC MH 13065 in assay [7] of 6.3 µg/mL (≈ 13.8 µM). The MIC MH 13093 in assay [8] is 6.3 µg/mL (≈ 13.8 µM).
In assay [9], `COc1ccc(CNCc2cccc(C#Cc3ccc(C(=O)N[C@H](C(=O)NO)C(C)C)cc3)c2)cc1` [Compound 43] registered an MIC PM 10775 of 0.4 µg/mL (≈ 0.824 µM). This molecule had an MIC MH 10720 in assay [1] of 1.6 µg/mL (≈ 3.3 µM). Also, the MIC MH 6374 in assay [2] stood at 6.3 µg/mL (≈ 13 µM). In assay [3], this molecule came in with an MIC PM 6267 of 3.1 µg/mL (≈ 6.38 µM). In [4], this molecule came in with an MIC MH 6357 of 6.3 µg/mL (≈ 13 µM). This molecule also gave an MIC PM 12080 in assay [5] of 3.1 µg/mL (≈ 6.38 µM). Also, in assay [6], the MIC MH 12587 amounted to 12.5 µg/mL (≈ 25.7 µM). This molecule also displayed an MIC MH 13065 in assay [7] of 6.3 µg/mL (≈ 13 µM). In addition, in assay [8], the MIC MH 13093 was 12.5 µg/mL (≈ 25.7 µM).
As for `CC(C)[C@H](NC(=O)c1ccc(C#Cc2cccc(CNCc3ccncc3)c2)cc1)C(=O)NO` [Compound 46], the MIC PM 10775 in assay [9] was determined as 0.2 µg/mL (≈ 0.438 µM). In addition, the MIC MH 10720 in assay [1] came to 1.6 µg/mL (≈ 3.5 µM). In assay [2], this molecule returned an MIC MH 6374 of 6.3 µg/mL (≈ 13.8 µM). This molecule yielded an MIC PM 6267 in assay [3] of 1.6 µg/mL (≈ 3.5 µM). In assay [4], this molecule displayed an MIC MH 6357 of 6.3 µg/mL (≈ 13.8 µM). This molecule also came in with an MIC PM 12080 in assay [5] of 6.3 µg/mL (≈ 13.8 µM). In addition, the MIC MH 12587 in [6] was 12.5 µg/mL (≈ 27.4 µM). For the same molecule, the MIC MH 13065 in assay [7] was 6.3 µg/mL (≈ 13.8 µM). Moreover, the MIC MH 13093 in assay [8] was 6.3 µg/mL (≈ 13.8 µM).
